Reference: the supplement of paper PMC10307832

Experiments:
Test in all cases: relative viability (nuclei count vs DMSO), 5 days (fraction); higher = more cells survive
[1] = compound: CC1=C(C(=NN1)C)CC2=C(C3=C(S2)N(C(=O)N(C3=O)C)CC(C)C)C(=O)N4C[C@@H](CO4)O + COc1cc2c(Oc3ccc(NC(=O)C4(C(=O)Nc5ccc(F)cc5)CC4)cc3F)ccnc2cc1OCCCN1CCOCC1 [Foretinib] (partner 0.25 µM)
How it was run: (§1)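 Lung cancer cell lines, seeded in 1536-well plates, were treated the following day by pin tool with a single drug or with five library-drug doses (not always all listed) in √10 steps on top of a fixed anchor-drug dose. Cells were fixed and nuclei stained in one step after 5 days, and nuclei were counted. Relative viability is the nuclei count for treated wells divided by that for vehicle wells, reported as medians of duplicate plates.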

[2] = compound: Cc1ccccc1C(C(=O)NC1CCCCC1)N(C(=O)Cn1ccnc1C)c1cccc(F)c1 [IDH-C35] + COc1cccc2cc(-c3nc([C@H]4CC[C@H](C(=O)O)CC4)n4ncnc(N)c34)[nH]c12 [OSI-027] (partner 0.5 µM)
How it was run: as §1

[3] = compound: Cc1ccccc1C(C(=O)NC1CCCCC1)N(C(=O)Cn1ccnc1C)c1cccc(F)c1 [IDH-C35] + Nc1nc2[nH]cc(CCc3ccc(C(=O)N[C@@H](CCC(=O)O)C(=O)O)cc3)c2c(=O)[nH]1 [Pemetrexed] (partner 0.2 µM)
How it was run: as §1

[4] = compound: Cc1ccccc1C(C(=O)NC1CCCCC1)N(C(=O)Cn1ccnc1C)c1cccc(F)c1 [IDH-C35] + CS(=O)(=O)CCNCc1ccc(-c2ccc3ncnc(Nc4ccc(OCc5cccc(F)c5)c(Cl)c4)c3c2)o1 [Lapatinib] (partner 2 µM)
How it was run: as §1

Cell Line	relative viability ([1]; first compound 0.0025 µM)	relative viability ([1]; first compound 0.007906 µM)	relative viability ([1]; first compound 0.025 µM)	relative viability ([1]; first compound 0.07906 µM)	relative viability ([1]; first compound 0.25 µM)	relative viability ([2]; first compound 0.08 µM)	relative viability ([2]; first compound 0.253 µM)	relative viability ([2]; first compound 0.8 µM)	relative viability ([2]; first compound 2.53 µM)	relative viability ([2]; first compound 8 µM)	relative viability ([3]; first compound 0.08 µM)	relative viability ([3]; first compound 0.253 µM)	relative viability ([3]; first compound 0.8 µM)	relative viability ([3]; first compound 2.53 µM)	relative viability ([3]; first compound 8 µM)	relative viability ([4]; first compound 0.08 µM)	relative viability ([4]; first compound 0.253 µM)	relative viability ([4]; first compound 0.8 µM)	relative viability ([4]; first compound 2.53 µM)	relative viability ([4]; first compound 8 µM)
ChaGo-K-1	0.886	0.979	0.888	0.914	0.968	0.604	0.523	0.529	0.637	0.572	0.244	0.27	0.273	0.265	0.248	–	–	–	–	–
EBC-1	0.117	0.107	0.12	0.107	0.103	–	–	–	–	–	–	–	–	–	–	0.24	0.228	0.24	0.232	0.236
EKVX	0.884	0.736	0.69	0.732	0.744	0.752	0.641	0.646	0.657	0.68	0.443	0.332	0.395	0.369	0.42	0.201	0.205	0.208	0.183	0.205
EMC-BAC-2	1.04	1.09	1.07	1.08	1.04	0.364	0.366	0.383	0.39	0.385	0.457	0.477	0.473	0.463	0.398	0.916	0.86	0.868	0.895	0.955
EPLC-272H	0.73	0.618	0.765	0.657	0.643	0.26	0.282	0.268	0.273	0.257	0.276	0.388	0.397	0.34	0.394	1.21	1.04	0.912	–	0.802
H3255	1.03	0.968	0.784	0.802	0.775	0.554	0.534	0.581	0.661	0.647	0.595	0.589	0.573	0.632	0.499	0.246	0.244	0.283	0.304	0.414
HARA	1	1.01	0.84	0.656	0.984	0.607	0.735	0.484	–	0.405	0.278	0.239	0.326	0.256	0.254	0.784	0.84	0.828	0.78	0.809
HCC-15	1.05	0.989	0.961	1.03	1.2	0.632	0.656	0.614	–	0.604	0.206	0.235	0.223	0.226	0.227	0.892	0.776	0.931	0.776	0.781
HCC-44	–	–	–	–	–	0.538	0.641	0.595	0.61	0.625	0.6	0.639	0.658	0.633	0.667	0.946	1.02	0.979	1.04	1.02
